Reference: patent publication US10517867B2, “Posaconazole derivative, pharmaceutical composition and use thereof” (priority 2016, dated 2019)

Experiment: Solid stability test (stability chamber, HPLC total impurity)
Assay type: physicochemical
Conditions: not given

Row | SMILES | Total impurity increment in 30 days [%]
1 | CC[C@@H]([C@H](C)O)n1ncn(-c2ccc(N3CCN(c4ccc(OC[C@@H]5CO[C@@](Cn6c[n+](C(C)OC(=O)N(C)c7ncccc7COC(=O)[C@@H](N)CCCNC)cn6)(c6ccc(F)cc6F)C5)cc4)CC3)cc2)c1=O (stereo partly drawn) [ST0038] | 1.06
2 | CC[C@@H]([C@H](C)O)n1ncn(-c2ccc(N3CCN(c4ccc(OC[C@@H]5CO[C@@](Cn6c[n+](C(C)OC(=O)NC7O[C@H](CO)[C@H](O)[C@H]7OC(=O)CNC)cn6)(c6ccc(F)cc6F)C5)cc4)CC3)cc2)c1=O (stereo partly drawn) [ST0028] | 1.62

Same assay, conditions: solid, packaged, 25° C.±2° C., relative humidity 60%±2%

Row | SMILES | Total impurity increment in 30 days [%]
3 | CC[C@@H]([C@H](C)O)n1ncn(-c2ccc(N3CCN(c4ccc(OC[C@@H]5CO[C@@](Cn6c[n+](C(C)OC(=O)OCCOP(=O)(O)O)cn6)(c6ccc(F)cc6F)C5)cc4)CC3)cc2)c1=O (stereo partly drawn) [ST0042] | 1.05
4 | CC[C@@H]([C@H](C)O)n1ncn(-c2ccc(N3CCN(c4ccc(OC[C@@H]5CO[C@@](Cn6c[n+](C(C)OC(=O)N(C)c7ncccc7COC(=O)[C@@H](N)CO)cn6)(c6ccc(F)cc6F)C5)cc4)CC3)cc2)c1=O (stereo partly drawn) [ST0105] | 0.34
5 | CC[C@@H]([C@H](C)O)n1ncn(-c2ccc(N3CCN(c4ccc(OC[C@@H]5CO[C@@](Cn6c[n+](C(C)OC(=O)N(C)c7ncccc7COC(=O)[C@@H](N)CCNC)cn6)(c6ccc(F)cc6F)C5)cc4)CC3)cc2)c1=O (stereo partly drawn) [ST0040] | 1.34
6 | CC[C@@H]([C@H](C)O)n1ncn(-c2ccc(N3CCN(c4ccc(OC[C@@H]5CO[C@@](Cn6c[n+](C(C)OC(=O)N(C)c7ncccc7COC(=O)[C@@H](N)CC(N)=O)cn6)(c6ccc(F)cc6F)C5)cc4)CC3)cc2)c1=O (stereo partly drawn) [ST0103] | 0.29
7 | CC[C@@H]([C@H](C)O)n1ncn(-c2ccc(N3CCN(c4ccc(OC[C@@H]5CO[C@@](Cn6c[n+](C(C)OC(=O)OCCS)cn6)(c6ccc(F)cc6F)C5)cc4)CC3)cc2)c1=O (stereo partly drawn) [ST0036] | 0.87
8 | CC[C@@H]([C@H](C)O)n1ncn(-c2ccc(N3CCN(c4ccc(OC[C@@H]5CO[C@@](Cn6c[n+](C(C)OC(=O)N(C)c7ncccc7COC(=O)[C@@H](N)CCC(N)=O)cn6)(c6ccc(F)cc6F)C5)cc4)CC3)cc2)c1=O (stereo partly drawn) [ST0102] | 0.36
9 | CC[C@@H]([C@H](C)O)n1ncn(-c2ccc(N3CCN(c4ccc(OC[C@@H]5CO[C@@](Cn6c[n+](C(C)OC(=O)N(C)c7ncccc7COC(=O)[C@@H](N)[C@@H](C)O)cn6)(c6ccc(F)cc6F)C5)cc4)CC3)cc2)c1=O (stereo partly drawn) [ST0106] | 0.32
10 | CC[C@@H]([C@H](C)O)n1ncn(-c2ccc(N3CCN(c4ccc(OC[C@@H]5CO[C@@](Cn6c[n+](CC(=O)[O-])cn6)(c6ccc(F)cc6F)C5)cc4)CC3)cc2)c1=O.[Cl-].[Na+] [ST0021] | 0.97
11 | CC[C@@H]([C@H](C)O)n1ncn(-c2ccc(N3CCN(c4ccc(OC[C@@H]5CO[C@@](Cn6c[n+](C(C)OC(=O)N(C)c7ncccc7COC(=O)CN)cn6)(c6ccc(F)cc6F)C5)cc4)CC3)cc2)c1=O (stereo partly drawn) [ST0101] | 0.47
12 | CC[C@@H]([C@H](C)O)n1ncn(-c2ccc(N3CCN(c4ccc(OC[C@@H]5CO[C@@](Cn6c[n+](C(C)OC(=O)N(C)c7ncccc7COC(=O)[C@@H](N)CCCCN)cn6)(c6ccc(F)cc6F)C5)cc4)CC3)cc2)c1=O (stereo partly drawn) [ST0104] | 0.27
13 | CC[C@@H]([C@H](C)O)n1ncn(-c2ccc(N3CCN(c4ccc(OC[C@@H]5CO[C@@](Cn6c[n+](C(C)OC(=O)SCC(=O)[O-])cn6)(c6ccc(F)cc6F)C5)cc4)CC3)cc2)c1=O.[Cl-].[Na+] (stereo partly drawn) [ST0034] | 1.85
14 | CC[C@@H](C(C)OC(=O)OC(C)OC(=O)CN(C)C)n1ncn(-c2ccc(N3CCN(c4ccc(OC[C@@H]5CO[C@@](Cn6cncn6)(c6ccc(F)cc6F)C5)cc4)CC3)cc2)c1=O (stereo partly drawn) [Compound 0058] | 0.47
15 | CC[C@@H]([C@H](C)OC(=O)OC(C)OC(=O)CNP(=O)([O-])[O-])n1ncn(-c2ccc(N3CCN(c4ccc(OC[C@@H]5CO[C@@](Cn6cncn6)(c6ccc(F)cc6F)C5)cc4)CC3)cc2)c1=O.[Na+].[Na+] (stereo partly drawn) [ST0055] | 0.85
16 | CC[C@@H]([C@H](C)OC(=O)OC(C)OC(=O)CC(=O)[O-])n1ncn(-c2ccc(N3CCN(c4ccc(OC[C@@H]5CO[C@@](Cn6cncn6)(c6ccc(F)cc6F)C5)cc4)CC3)cc2)c1=O.[Na+] (stereo partly drawn) [ST0048] | 0.95
17 | CC[C@@H]([C@H](C)OC(=O)OCCOCCOP(=O)([O-])[O-])n1ncn(-c2ccc(N3CCN(c4ccc(OC[C@@H]5CO[C@@](Cn6cncn6)(c6ccc(F)cc6F)C5)cc4)CC3)cc2)c1=O.[Na+].[Na+] [ST0060] | 0.83
18 | CC[C@@H](C(C)OC(=O)OC(C)OC(=O)CNS(=O)(=O)[O-])n1ncn(-c2ccc(N3CCN(c4ccc(OC[C@@H]5CO[C@@](Cn6cncn6)(c6ccc(F)cc6F)C5)cc4)CC3)cc2)c1=O.[Na+] (stereo partly drawn) [ST0057] | 1.96

Experiment: Determination of solubility in deionized water (HPLC, external standard)
Conditions: 25 °C, water, thermodynamic from solid

Row | SMILES | solubility at 30 min [mg/mL]
19 | CC[C@@H]([C@H](C)OC(=O)OC(C)OC(=O)COP(=O)([O-])[O-])n1ncn(-c2ccc(N3CCN(c4ccc(OC[C@@H]5CO[C@@](Cn6cncn6)(c6ccc(F)cc6F)C5)cc4)CC3)cc2)c1=O.[Na+].[Na+] (stereo partly drawn) [ST0065] | > 50
20 | CC[C@@H]([C@H](C)O)n1ncn(-c2ccc(N3CCN(c4ccc(OC[C@@H]5CO[C@@](Cn6c[n+](C(C)OC(=O)OCCOP(=O)(O)O)cn6)(c6ccc(F)cc6F)C5)cc4)CC3)cc2)c1=O (stereo partly drawn) [ST0042] | > 50
21 | CC[C@@H]([C@H](C)OC(=O)OC(C)OC(=O)CCCOP(=O)([O-])[O-])n1ncn(-c2ccc(N3CCN(c4ccc(OC[C@@H]5CO[C@@](Cn6cncn6)(c6ccc(F)cc6F)C5)cc4)CC3)cc2)c1=O.[Na+].[Na+] (stereo partly drawn) [ST0062] | > 50
22 | CC[C@@H]([C@H](C)OC(=O)OCCOP(=O)([O-])[O-])n1ncn(-c2ccc(N3CCN(c4ccc(OC[C@@H]5CO[C@@](Cn6cncn6)(c6ccc(F)cc6F)C5)cc4)CC3)cc2)c1=O.[Na+].[Na+] [ST0059] | > 50
23 | CC[C@@H]([C@H](C)O)n1ncn(-c2ccc(N3CCN(c4ccc(OC[C@@H]5CO[C@@](Cn6c[n+](C(C)OC(=O)N(C)c7ncccc7CN)cn6)(c6ccc(F)cc6F)C5)cc4)CC3)cc2)c1=O (stereo partly drawn) [ST0032] | 30.5
24 | CC[C@@H](C(C)OC(=O)OC(C)OC(=O)COS(=O)(=O)[O-])n1ncn(-c2ccc(N3CCN(c4ccc(OC[C@@H]5CO[C@@](Cn6cncn6)(c6ccc(F)cc6F)C5)cc4)CC3)cc2)c1=O.[Na+] (stereo partly drawn) [ST0075] | > 50
25 | CC[C@@H]([C@H](C)O)n1ncn(-c2ccc(N3CCN(c4ccc(OC[C@@H]5CO[C@@](Cn6c[n+](C(C)OC(=O)N(C)c7ncccc7CNC)cn6)(c6ccc(F)cc6F)C5)cc4)CC3)cc2)c1=O (stereo partly drawn) [ST0037] | > 50
26 | CC[C@@H](C(C)OC(=O)OC(C)OC(=O)CN(C)S(=O)(=O)[O-])n1ncn(-c2ccc(N3CCN(c4ccc(OC[C@@H]5CO[C@@](Cn6cncn6)(c6ccc(F)cc6F)C5)cc4)CC3)cc2)c1=O.[Na+] (stereo partly drawn) [ST0056] | > 50
27 | CC[C@@H]([C@H](C)O)n1ncn(-c2ccc(N3CCN(c4ccc(OC[C@@H]5CO[C@@](Cn6c[n+](C(C)OC(=O)N(C)c7ncccc7COC(=O)[C@@H](N)CCNC)cn6)(c6ccc(F)cc6F)C5)cc4)CC3)cc2)c1=O (stereo partly drawn) [ST0040] | > 50
28 | CC[C@@H](C(C)OC(=O)OC(C)OC(=O)CCCCOP(=O)([O-])[O-])n1ncn(-c2ccc(N3CCN(c4ccc(OC[C@@H]5CO[C@@](Cn6cncn6)(c6ccc(F)cc6F)C5)cc4)CC3)cc2)c1=O.[Na+].[Na+] (stereo partly drawn) [ST0068] | > 50
29 | CC[C@@H](C(C)OC(=O)OC(C)OC(=O)CCCCCCCCOP(=O)([O-])[O-])n1ncn(-c2ccc(N3CCN(c4ccc(OC[C@@H]5CO[C@@](Cn6cncn6)(c6ccc(F)cc6F)C5)cc4)CC3)cc2)c1=O.[Na+].[Na+] (stereo partly drawn) [ST0071] | 23.4
30 | CC[C@@H]([C@H](C)OC(=O)OCCOCCOCCOP(=O)([O-])[O-])n1ncn(-c2ccc(N3CCN(c4ccc(OC[C@@H]5CO[C@@](Cn6cncn6)(c6ccc(F)cc6F)C5)cc4)CC3)cc2)c1=O.[Na+].[Na+] [ST0061] | > 50
31 | CC[C@@H]([C@H](C)O)n1ncn(-c2ccc(N3CCN(c4ccc(OC[C@@H]5CO[C@@](Cn6c[n+](C(C)OC(=O)SC[C@H](N)C(=O)O)cn6)(c6ccc(F)cc6F)C5)cc4)CC3)cc2)c1=O (stereo partly drawn) [ST0030] | 21.8
32 | CC[C@@H]([C@H](C)OC(=O)OC(C)OC(=O)CCCCCCOS(=O)(=O)[O-])n1ncn(-c2ccc(N3CCN(c4ccc(OC[C@@H]5CO[C@@](Cn6cncn6)(c6ccc(F)cc6F)C5)cc4)CC3)cc2)c1=O.[Na+] (stereo partly drawn) [ST0081] | > 50
33 | CC[C@@H]([C@H](C)O)n1ncn(-c2ccc(N3CCN(c4ccc(OC[C@@H]5CO[C@@](Cn6c[n+](C(C)OC(=O)N(C)c7ncccc7COC(=O)[C@@H](N)CCCNC)cn6)(c6ccc(F)cc6F)C5)cc4)CC3)cc2)c1=O (stereo partly drawn) [ST0038] | > 50
34 | CC[C@@H]([C@H](C)OC(=O)OC(C)OC(=O)C(O)COP(=O)([O-])[O-])n1ncn(-c2ccc(N3CCN(c4ccc(OC[C@@H]5CO[C@@](Cn6cncn6)(c6ccc(F)cc6F)C5)cc4)CC3)cc2)c1=O.[Na+].[Na+] (stereo partly drawn) [ST0089] | 25.2
35 | CC[C@@H]([C@H](C)O)n1ncn(-c2ccc(N3CCN(c4ccc(OC[C@@H]5CO[C@@](Cn6c[n+](C(C)OC(=O)NC7O[C@H](CO)[C@H](O)[C@H]7OC(=O)CNC)cn6)(c6ccc(F)cc6F)C5)cc4)CC3)cc2)c1=O (stereo partly drawn) [ST0028] | 35.7
36 | CC[C@@H](C(C)OC(=O)OC(C)OC(=O)CCCCCCCOP(=O)([O-])[O-])n1ncn(-c2ccc(N3CCN(c4ccc(OC[C@@H]5CO[C@@](Cn6cncn6)(c6ccc(F)cc6F)C5)cc4)CC3)cc2)c1=O.[Na+].[Na+] (stereo partly drawn) [ST0069] | 43.7
37 | CC[C@@H]([C@H](C)OS(=O)(=O)[O-])n1ncn(-c2ccc(N3CCN(c4ccc(OC[C@@H]5CO[C@@](Cn6cncn6)(c6ccc(F)cc6F)C5)cc4)CC3)cc2)c1=O.[Na+] [ST0095] | > 50
38 | CC[C@@H](C(C)OC(=O)OC(C)OC(=O)CCOS(=O)(=O)[O-])n1ncn(-c2ccc(N3CCN(c4ccc(OC[C@@H]5CO[C@@](Cn6cncn6)(c6ccc(F)cc6F)C5)cc4)CC3)cc2)c1=O.[Na+] (stereo partly drawn) [ST0076] | > 50
39 | CC[C@@H](C(C)OC(=O)OC(C)OC(=O)CNS(=O)(=O)[O-])n1ncn(-c2ccc(N3CCN(c4ccc(OC[C@@H]5CO[C@@](Cn6cncn6)(c6ccc(F)cc6F)C5)cc4)CC3)cc2)c1=O.[Na+] (stereo partly drawn) [ST0057] | > 50

Same assay, conditions: 25±2° C., after 30 min

Row | SMILES | Solubility [mg/mL]
40 | CC[C@@H]([C@H](C)OC(=O)OC(C)OC(=O)CN(C)P(=O)([O-])[O-])n1ncn(-c2ccc(N3CCN(c4ccc(OC[C@@H]5CO[C@@](Cn6cncn6)(c6ccc(F)cc6F)C5)cc4)CC3)cc2)c1=O.[Na+].[Na+] (stereo partly drawn) [ST0054] | 40.9
41 | CC[C@@H]([C@H](C)OC(=O)OC(C)OC(=O)CNP(=O)([O-])[O-])n1ncn(-c2ccc(N3CCN(c4ccc(OC[C@@H]5CO[C@@](Cn6cncn6)(c6ccc(F)cc6F)C5)cc4)CC3)cc2)c1=O.[Na+].[Na+] (stereo partly drawn) [ST0055] | 35.4
42 | CC[C@@H]([C@H](C)OC(=O)OCCOCCOP(=O)([O-])[O-])n1ncn(-c2ccc(N3CCN(c4ccc(OC[C@@H]5CO[C@@](Cn6cncn6)(c6ccc(F)cc6F)C5)cc4)CC3)cc2)c1=O.[Na+].[Na+] [ST0060] | >50
